Where “and” joins values, the source holds several entries; their conditions need not be identical. Equal entries are not always repeated. Toxic doses and inconclusive results are not listed. No stated cut-off is given here; in the data, active means T/C of 150% or more; inactive means T/C below 125%.
Test system: L1210 leukemia ip in BDF1 mice, survival T/C
Test: NCI In Vivo Anticancer Drug Screen. Data for tumor model L1210 Leukemia (intraperitoneal) in B6D2F1 (BDF1) mice
Details: endpoint: mean survival time, higher = longer survival
Method in brief: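 Tumor was transplanted into mice, which were then dosed with test compound or vehicle alone. Survival was recorded for each group, and the treated figure was expressed relative to the control figure.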

[1] = dose: 100.0 mg/kg/injection, schedule: Q01DX001 (ip), vehicle: carboxymethylcellulose (CMC)
[2] = dose: 100.0 mg/kg/injection, schedule: Q04DX003 (ip), vehicle: Klucel (hydroxypropylcellulose) (HPC)
[3] = dose: 200.0 mg/kg/injection, schedule: Q04DX003 (ip), vehicle: Klucel (hydroxypropylcellulose) (HPC)
[4] = dose: 400.0 mg/kg/injection, schedule: Q04DX003 (ip), vehicle: Klucel (hydroxypropylcellulose) (HPC)
[5] = dose: 100.0 mg/kg/injection, schedule: Q04DX003 (ip), vehicle: saline
[6] = dose: 200.0 mg/kg/injection, schedule: Q04DX003 (ip), vehicle: saline
[7] = dose: 400.0 mg/kg/injection, schedule: Q04DX003 (ip), vehicle: saline
[8] = dose: 100.0 mg/kg/injection, schedule: Q01DX001 (ip), vehicle: saline
[9] = dose: 200.0 mg/kg/injection, schedule: Q01DX001 (ip), vehicle: saline
[10] = dose: 400.0 mg/kg/injection, schedule: Q01DX001 (ip), vehicle: saline
[11] = dose: 200.0 mg/kg/injection, schedule: Q01DX001 (ip), vehicle: carboxymethylcellulose (CMC)
[12] = dose: 100.0 mg/kg/injection, schedule: Q01DX009 (ip), vehicle: Klucel (hydroxypropylcellulose) (HPC)
[13] = dose: 200.0 mg/kg/injection, schedule: Q01DX009 (ip), vehicle: Klucel (hydroxypropylcellulose) (HPC)
[14] = dose: 400.0 mg/kg/injection, schedule: Q01DX009 (ip), vehicle: Klucel (hydroxypropylcellulose) (HPC)

Measured: T/C

Cc1cc(-c2ccccc2)c2ccc3c(-c4ccccc4)cc(C)nc3c2n1
inactive: dose: 0.5 mg/kg/injection, schedule: Q01DX001 (ip), vehicle: carboxymethylcellulose (CMC) 105 % of control | dose: 1.0 mg/kg/injection, schedule: Q01DX001 (ip), vehicle: carboxymethylcellulose (CMC) 112 % of control | dose: 2.0 mg/kg/injection, schedule: Q01DX001 (ip), vehicle: carboxymethylcellulose (CMC) 95 % of control | dose: 4.0 mg/kg/injection, schedule: Q01DX001 (ip), vehicle: carboxymethylcellulose (CMC) 97 % of control | dose: 8.0 mg/kg/injection, schedule: Q01DX001 (ip), vehicle: carboxymethylcellulose (CMC) 100 % of control | dose: 10.0 mg/kg/injection, schedule: Q01DX001 (ip), vehicle: carboxymethylcellulose (CMC) 100 % of control | dose: 20.0 mg/kg/injection, schedule: Q01DX001 (ip), vehicle: carboxymethylcellulose (CMC) 95 % of control | dose: 80.0 mg/kg/injection, schedule: Q01DX001 (ip), vehicle: carboxymethylcellulose (CMC) 95 % of control | [1] 97 % of control

CCCn1c(=O)cc(C)c2ccccc21
inactive: dose: 100.0 mg/kg/injection, schedule: Q01DX001 (ip), vehicle: other 105 % of control | dose: 200.0 mg/kg/injection, schedule: Q01DX001 (ip), vehicle: other 90 % of control | dose: 400.0 mg/kg/injection, schedule: Q01DX001 (ip), vehicle: other 91 % of control

CCCOC(=O)N(C)c1ccccc1
inactive: dose: 75.0 mg/kg/injection, schedule: Q04DX002 (ip), vehicle: Klucel (hydroxypropylcellulose) (HPC) 101 % of control | dose: 150.0 mg/kg/injection, schedule: Q04DX002 (ip), vehicle: Klucel (hydroxypropylcellulose) (HPC) 101 % of control | dose: 300.0 mg/kg/injection, schedule: Q04DX002 (ip), vehicle: Klucel (hydroxypropylcellulose) (HPC) 101 % of control

Cc1ccc(S(=O)(=O)N(C)c2ccc3cc(Br)ccc3c2)cc1
inactive: dose: 100.0 mg/kg/injection, schedule: Q01DX005 (ip), vehicle: Klucel (hydroxypropylcellulose) (HPC) 94 % of control | [2] 95 % of control | dose: 200.0 mg/kg/injection, schedule: Q01DX005 (ip), vehicle: Klucel (hydroxypropylcellulose) (HPC) 100 % of control | [3] 97 % of control | dose: 400.0 mg/kg/injection, schedule: Q01DX005 (ip), vehicle: Klucel (hydroxypropylcellulose) (HPC) 91 % of control | [4] 97 % of control

c1ccc(Nc2nnc(Nc3ccccc3)s2)cc1
inactive: dose: 100.0 mg/kg/injection, schedule: Q01DX001 (ip), vehicle: Klucel (hydroxypropylcellulose) (HPC) 92 % of control | dose: 200.0 mg/kg/injection, schedule: Q01DX001 (ip), vehicle: Klucel (hydroxypropylcellulose) (HPC) 103 % of control | dose: 400.0 mg/kg/injection, schedule: Q01DX001 (ip), vehicle: Klucel (hydroxypropylcellulose) (HPC) 106 % of control

NC(CSSCC(N)=NCC12CC3CC(CC(C3)C1)C2)=NCC12CC3CC(CC(C3)C1)C2
inactive: dose: 100.0 mg/kg/injection, schedule: Q04DX002 (ip), vehicle: saline with Tween-80 97 % of control | dose: 200.0 mg/kg/injection, schedule: Q04DX002 (ip), vehicle: saline with Tween-80 105 % of control

Cc1ccc(S(=O)(=O)OCC23CC4C5CC2C3(COS(=O)(=O)c2ccc(C)cc2)CC54)cc1
inactive: dose: 75.0 mg/kg/injection, schedule: Q01DX009 (ip), vehicle: Klucel (hydroxypropylcellulose) (HPC) 95 % of control | dose: 150.0 mg/kg/injection, schedule: Q01DX009 (ip), vehicle: Klucel (hydroxypropylcellulose) (HPC) 98 % of control | dose: 300.0 mg/kg/injection, schedule: Q01DX009 (ip), vehicle: Klucel (hydroxypropylcellulose) (HPC) 93 % of control

CCOC(=O)CNC(=O)C1CSC(C)(C)N1C=O (stereo unspecified)
inactive: [5] 101 % of control | [6] 94 % of control | [7] 101 % of control

CNCCOC(=O)c1cc([N+](=O)[O-])c(C)s1
inactive: [8] 94 % of control | [9] 103 % of control | [10] 100 % of control

CC(C)CC[n+]1ccc(C(N)=O)cc1
inactive: [8] 97 % of control | [5] 98 % of control | [9] 100 % of control | [6] 97 % of control | [10] 95 % of control | [7] 104 % of control

COC1(OC)C2(Cl)C=C(c3ccccc3)C1(Cl)C(Cl)=C2Cl (stereo unspecified)
inactive: [1] 92 % of control | [11] 97 % of control | dose: 400.0 mg/kg/injection, schedule: Q01DX001 (ip), vehicle: carboxymethylcellulose (CMC) 94 % of control

CC1(C)CC(=O)CCS1
inactive: [12] 102 % of control | [2] 105 % of control | [13] 96 % of control | [3] 98 % of control | [14] 104 % of control | [4] 100 % of control

COc1ccc([I+]c2ccccc2C(=O)[O-])cc1OC
inactive: dose: 50.0 mg/kg/injection, schedule: Q01DX001 (ip), vehicle: saline 98 % of control | [8] 96 % of control | [9] 104 % of control | [10] 98 % of control

O=[N+]([O-])c1ccc(C(O)CC(O)(C(F)(F)F)C(F)(F)F)cc1 (stereo unspecified)
inactive: [12] 93 % of control | [2] 94 % of control | [13] 94 % of control | [3] 91 % of control | [14] 97 % of control | [4] 95 % of control

CC1C2CC3OC(=O)C1C3C2 (stereo unspecified)
inactive: dose: 50.0 mg/kg/injection, schedule: Q01DX001 (ip), vehicle: carboxymethylcellulose (CMC) 104 % of control | [1] 102 % of control | [11] 87 % of control

CCN(CC)C(=O)C(Br)C(Br)C(=O)N(CC)CC (stereo unspecified)
inactive: dose: 100.0 mg/kg/injection, schedule: Q04DX003 (ip), vehicle: acetone 100 % of control | dose: 200.0 mg/kg/injection, schedule: Q04DX003 (ip), vehicle: acetone 100 % of control | dose: 400.0 mg/kg/injection, schedule: Q04DX003 (ip), vehicle: acetone 92 % of control

OC[P+](CO)(CO)CO
inactive: dose: 25.0 mg/kg/injection, schedule: Q04DX002 (ip), vehicle: saline 113 % of control | dose: 50.0 mg/kg/injection, schedule: Q04DX002 (ip), vehicle: saline 103 % of control | dose: 100.0 mg/kg/injection, schedule: Q04DX002 (ip), vehicle: saline 100 % of control and 109 % of control

CCOC(=O)C(Cc1c[nH]c2ccccc12)C(=O)OCC
inactive: [2] 96 % of control | [3] 94 % of control | [4] 98 % of control

c1cc[c]([Pb]([S]c2ncnc3c2nc[n]3[Pb]([c]2ccccc2)([c]2ccccc2)[c]2ccccc2)([c]2ccccc2)[c]2ccccc2)cc1.c1cc[c]([Pb]([S]c2ncnc3nc[nH]c23)([c]2ccccc2)[c]2ccccc2)cc1
inactive: dose: 5.0 mg/kg/injection, schedule: Q01DX001 (ip), vehicle: other 103 % of control | dose: 10.0 mg/kg/injection, schedule: Q01DX001 (ip), vehicle: other 121 % of control

CNC(=O)Oc1cccc(NC(=O)OC2CCCCC2)c1
inactive: dose: 100.0 mg/kg/injection, schedule: Q01DX009 (ip), vehicle: saline with Tween-80 89 % of control | dose: 200.0 mg/kg/injection, schedule: Q01DX009 (ip), vehicle: saline with Tween-80 97 % of control | dose: 400.0 mg/kg/injection, schedule: Q01DX009 (ip), vehicle: saline with Tween-80 89 % of control

O=C(NO)c1ccccn1
inactive: dose: 90.0 mg/kg/injection, schedule: Q01DX015 (ip), vehicle: water 97 % of control | dose: 130.0 mg/kg/injection, schedule: Q01DX015 (ip), vehicle: water 101 % of control | dose: 133.0 mg/kg/injection, schedule: Q01DX015 (ip), vehicle: water 97 % of control | dose: 200.0 mg/kg/injection, schedule: Q01DX015 (ip), vehicle: water 110 % of control

O=[N+]([O-])c1ccc(NC(CO)C(O)C(O)C(O)CO)c([N+](=O)[O-])c1 (stereo unspecified)
inactive: [8] 102 % of control | [9] 98 % of control | [10] 98 % of control

CSc1nc2c(N)ncnc2n1C1OC(CO)C(O)C1O (stereo unspecified)
inactive: dose: 100.0 mg/kg/injection, schedule: Q01DX005 (ip), vehicle: saline 98 % of control | dose: 200.0 mg/kg/injection, schedule: Q01DX005 (ip), vehicle: saline 101 % of control

From PubChem BioAssay AID248 (DTP/NCI, 2004)
